Test system: 953936-095-R-J2-PDC spheroids with HUVEC/MSC, viability
Test: Anticancer human tumor 953936-095-R-J2-PDC patient-derived cervical squamous cell carcinoma cell line growth inhibition [PI3K]
Settings: for IC50: curve of first compound; for viability, T/C: stronger effect = lower value
Summary of the method: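 We assembled tumor spheroids that included a stromal compartment of HUVEC and MSCs, then exposed them to targeted agents alone and together with PI3K pathway inhibitors. Concentration series descended by half-log from clinically achievable Cmax levels. Viability served as the endpoint.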

[1] = second compound 0.00316 µM, first compound 0.0316 µM
[2] = second compound 0.00316 µM, first compound 0.1 µM
[3] = second compound 0.00316 µM, first compound 0.316 µM
[4] = second compound 0.00316 µM, first compound 1 µM
[5] = second compound 0.00316 µM, first compound 3.16 µM
[6] = second compound 0.00316 µM, first compound 10 µM
[7] = second compound 0.01 µM, first compound 0.0316 µM
[8] = second compound 0.01 µM, first compound 0.1 µM
[9] = second compound 0.01 µM, first compound 0.316 µM
[10] = second compound 0.01 µM, first compound 1 µM
[11] = second compound 0.01 µM, first compound 3.16 µM
[12] = second compound 0.01 µM, first compound 10 µM
[13] = second compound 0.0316 µM, first compound 0.0316 µM
[14] = second compound 0.0316 µM, first compound 0.1 µM
[15] = second compound 0.0316 µM, first compound 0.316 µM
[16] = second compound 0.0316 µM, first compound 1 µM
[17] = second compound 0.0316 µM, first compound 3.16 µM
[18] = second compound 0.0316 µM, first compound 10 µM
[19] = second compound 0.1 µM, first compound 0.0316 µM
[20] = second compound 0.1 µM, first compound 0.1 µM
[21] = second compound 0.1 µM, first compound 0.316 µM
[22] = second compound 0.1 µM, first compound 1 µM
[23] = second compound 0.1 µM, first compound 3.16 µM
[24] = second compound 0.1 µM, first compound 10 µM
[25] = second compound 0.316 µM, first compound 0.0316 µM
[26] = second compound 0.316 µM, first compound 0.1 µM
[27] = second compound 0.316 µM, first compound 0.316 µM
[28] = second compound 0.316 µM, first compound 1 µM
[29] = second compound 0.316 µM, first compound 3.16 µM
[30] = second compound 0.316 µM, first compound 10 µM
[31] = second compound 1 µM, first compound 0.0316 µM
[32] = second compound 1 µM, first compound 0.1 µM
[33] = second compound 1 µM, first compound 0.316 µM
[34] = second compound 1 µM, first compound 1 µM
[35] = second compound 1 µM, first compound 3.16 µM
[36] = second compound 1 µM, first compound 10 µM
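Also: spheroids exposed to compounds for seven days before read-out.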

`CC1(C)CCC(Nc2ncc(C(F)(F)F)c(-c3c[nH]c4c(P(C)(C)=O)c(C#N)ccc34)n2)CN1` (centres undefined) + CC(Nc1ccc2c(c1)OCCn1cc(N3C(=O)OCC3C(F)F)nc1-2)C(N)=O was tested, and the IC50 (second compound 0.00316 µM) was < 31.6 nM, the IC50 (second compound 0.01 µM) was < 31.6 nM and the IC50 (second compound 0.0316 µM) was < 31.6 nM. The IC50 (second compound 0.1 µM) was < 31.6 nM, the IC50 (second compound 0.316 µM) was < 31.6 nM and the IC50 (second compound 1 µM) was < 31.6 nM. It also gave a viability, T/C [1] of 48.3%, a viability, T/C [2] of 44.8% and a viability, T/C [3] of 49.2%. For the same compound, the viability, T/C [4] was 58.6%, the viability, T/C [5] was 45.3% and the viability, T/C [6] was 5.82%. For the same compound, the viability, T/C [7] was 49.9%, the viability, T/C [8] was 45% and the viability, T/C [9] was 42.8%. It also gave a viability, T/C [10] of 51.6%, a viability, T/C [11] of 50.3% and a viability, T/C [12] of 5.56%. For the same compound, the viability, T/C [13] was 45.9%, the viability, T/C [14] was 42.4% and the viability, T/C [15] was 39.2%. For the same compound, the viability, T/C [16] was 40.8%, the viability, T/C [17] was 44.9% and the viability, T/C [18] was 4.63%. For the same compound, the viability, T/C [19] was 38.5%, the viability, T/C [20] was 32.2% and the viability, T/C [21] was 35.2%. It also gave a viability, T/C [22] of 32.7%, a viability, T/C [23] of 41.1% and a viability, T/C [24] of 3.61%. It also gave a viability, T/C [25] of 21.5%, a viability, T/C [26] of 22.4% and a viability, T/C [27] of 22.4%. It also gave a viability, T/C [28] of 22.4%, a viability, T/C [29] of 19.8% and a viability, T/C [30] of 1.3%. It also gave a viability, T/C [31] of 16.5%, a viability, T/C [32] of 16.3% and a viability, T/C [33] of 17.7%. It also gave a viability, T/C [34] of 16.6%, a viability, T/C [35] of 15.7% and a viability, T/C [36] of 0.88%.

`CC(C)NCC(C(=O)N1CCN(c2ncnc3c2C(C)CC3O)CC1)c1ccc(Cl)cc1` (centres undefined) + COc1c(OCCCN2CCOCC2)ccc2c3n(c(=NC(=O)c4cnc(N)nc4)nc12)CCN3 was tested, and the IC50 (second compound 0.00316 µM) was 793 nM, the IC50 (second compound 0.01 µM) was 537 nM and the IC50 (second compound 0.0316 µM) was < 31.6 nM. For the same compound, the IC50 (second compound 0.1 µM) was < 31.6 nM, the IC50 (second compound 0.316 µM) was < 31.6 nM and the IC50 (second compound 1 µM) was < 31.6 nM. The viability, T/C [1] was 80.9%, the viability, T/C [2] was 85.2% and the viability, T/C [3] was 66.5%. The viability, T/C [4] was 46.5%, the viability, T/C [5] was 21% and the viability, T/C [6] was 11.6%. It also gave a viability, T/C [7] of 68.9%, a viability, T/C [8] of 69.2% and a viability, T/C [9] of 62.2%. It also gave a viability, T/C [10] of 35.6%, a viability, T/C [11] of 16.6% and a viability, T/C [12] of 9.89%. It also gave a viability, T/C [13] of 44.4%, a viability, T/C [14] of 38.5% and a viability, T/C [15] of 35.7%. For the same compound, the viability, T/C [16] was 24%, the viability, T/C [17] was 12.2% and the viability, T/C [18] was 6.65%. For the same compound, the viability, T/C [19] was 18.9%, the viability, T/C [20] was 16.4% and the viability, T/C [21] was 16.3%. It also gave a viability, T/C [22] of 12.4%, a viability, T/C [23] of 6.76% and a viability, T/C [24] of 3.98%. For the same compound, the viability, T/C [25] was 6.59%, the viability, T/C [26] was 6.54% and the viability, T/C [27] was 5.22%. The viability, T/C [28] was 4.04%, the viability, T/C [29] was 2.93% and the viability, T/C [30] was 1.71%. For the same compound, the viability, T/C [31] was 1.44%, the viability, T/C [32] was 2.11% and the viability, T/C [33] was 1.2%. The viability, T/C [34] was 1.24%, the viability, T/C [35] was 0.83% and the viability, T/C [36] was 0.81%.
